Source: PubChem BioAssay AID330 (DTP/NCI, 2004)
Where “and” joins values, the source holds several entries; their conditions need not be identical. Equal values may be shown once. Toxic doses and inconclusive results are not listed. How the source made its calls: active means survival T/C of 150% or more; inactive means T/C below 125% in these data. Peptide text beside a SMILES is read from it. * marks the point of attachment. CH2Cl = ClC*

System: P388 leukemia ip, CD2F1 mice, survival T/C
Assay: NCI In Vivo Anticancer Drug Screen. Data for tumor model P388 Leukemia (intraperitoneal) in CD2F1 (CDF1) mice
Conditions: endpoint: median survival time, higher = longer survival
Summary of the method: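 Mice carrying the transplanted tumor received test compound or vehicle. Survival was recorded in each group, and the value is the treated-group measurement divided by that of the vehicle-treated control group.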

[1] = dose: 60.0 mg/kg/injection, schedule: Q01DX005 (ip), vehicle: saline with Tween-80
[2] = dose: 120.0 mg/kg/injection, schedule: Q01DX005 (ip), vehicle: saline with Tween-80
[3] = dose: 240.0 mg/kg/injection, schedule: Q01DX005 (ip), vehicle: saline with Tween-80
[4] = dose: 50.0 mg/kg/injection, schedule: Q01DX009 (ip), vehicle: Klucel (hydroxypropylcellulose) (HPC)
[5] = dose: 100.0 mg/kg/injection, schedule: Q01DX009 (ip), vehicle: Klucel (hydroxypropylcellulose) (HPC)
[6] = dose: 200.0 mg/kg/injection, schedule: Q01DX009 (ip), vehicle: Klucel (hydroxypropylcellulose) (HPC)
[7] = dose: 50.0 mg/kg/injection, schedule: Q01DX009 (ip), vehicle: saline with Tween-80
[8] = dose: 100.0 mg/kg/injection, schedule: Q01DX009 (ip), vehicle: saline with Tween-80
[9] = dose: 200.0 mg/kg/injection, schedule: Q01DX009 (ip), vehicle: saline with Tween-80
[10] = dose: 12.5 mg/kg/injection, schedule: Q01DX009 (ip), vehicle: Klucel (hydroxypropylcellulose) (HPC)
[11] = dose: 25.0 mg/kg/injection, schedule: Q01DX009 (ip), vehicle: Klucel (hydroxypropylcellulose) (HPC)

Measured: T/C

CC12c3ccccc3CCN1C(c1ccccc1)=NN2c1ccccc1 (stereo not given)
inactive: dose: 100.0 mg/kg/injection, schedule: Q01DX001 (ip), vehicle: saline with Tween-80 105 % of control | dose: 200.0 mg/kg/injection, schedule: Q01DX001 (ip), vehicle: saline with Tween-80 103 % of control | dose: 400.0 mg/kg/injection, schedule: Q01DX001 (ip), vehicle: saline with Tween-80 102 % of control

CC(O)CNC1=C(Cl)C(=O)c2ccccc2C1=O (stereo not given)
inactive: dose: 12.5 mg/kg/injection, schedule: Q01DX009 (ip), vehicle: distilled water + Tween-80 100 % of control | dose: 25.0 mg/kg/injection, schedule: Q01DX009 (ip), vehicle: distilled water + Tween-80 103 % of control | dose: 50.0 mg/kg/injection, schedule: Q01DX009 (ip), vehicle: distilled water + Tween-80 100 % of control | dose: 100.0 mg/kg/injection, schedule: Q01DX009 (ip), vehicle: distilled water + Tween-80 98 % of control | dose: 200.0 mg/kg/injection, schedule: Q01DX009 (ip), vehicle: distilled water + Tween-80 92 % of control

O=C(Cc1nc2ccc([N+](=O)[O-])cc2nc1CC(=O)c1ccccc1)c1ccccc1
inactive: [1] 110 % of control | [2] 103 % of control | [3] 100 % of control

C=C(C)C1CCC=CC(=O)C1 (stereo not given)
inactive: dose: 100.0 mg/kg/injection, schedule: Q04DX003 (ip), vehicle: Klucel (hydroxypropylcellulose) (HPC) 107 % of control | dose: 200.0 mg/kg/injection, schedule: Q04DX003 (ip), vehicle: Klucel (hydroxypropylcellulose) (HPC) 116 % of control

O=[N+]([O-])/C=C/c1ccc(Cl)cc1Cl
inactive: dose: 20.0 mg/kg/injection, schedule: Q04DX003 (ip), vehicle: saline with Tween-80 118 % of control | dose: 40.0 mg/kg/injection, schedule: Q04DX003 (ip), vehicle: saline with Tween-80 118 % of control | dose: 80.0 mg/kg/injection, schedule: Q04DX003 (ip), vehicle: saline with Tween-80 118 % of control

COc1ccc(SC(N(C)C)=[N+](C)C)cc1
inactive: dose: 15.0 mg/kg/injection, schedule: Q01DX005 (ip), vehicle: saline 100 % of control | dose: 30.0 mg/kg/injection, schedule: Q01DX005 (ip), vehicle: saline 100 % of control | dose: 60.0 mg/kg/injection, schedule: Q01DX005 (ip), vehicle: saline 102 % of control and 121 % of control

OCCCCC12CCC(CCCCO)(CC1)CC2
inactive: dose: 100.0 mg/kg/injection, schedule: Q04DX002 (ip), vehicle: Klucel (hydroxypropylcellulose) (HPC) 91 % of control | dose: 400.0 mg/kg/injection, schedule: Q04DX002 (ip), vehicle: Klucel (hydroxypropylcellulose) (HPC) 86 % of control

O=C1CN(c2cccc(C(F)(F)F)c2)C(=O)CN1/N=C/c1ccc(O)c(O)c1
inactive: dose: 6.25 mg/kg/injection, schedule: Q01DX005 (ip), vehicle: saline with Tween-80 100 % of control | dose: 12.5 mg/kg/injection, schedule: Q01DX005 (ip), vehicle: saline with Tween-80 97 % of control | dose: 25.0 mg/kg/injection, schedule: Q01DX005 (ip), vehicle: saline with Tween-80 96 % of control

O=C1O/C(=C/c2cc(Cl)c(O)c(Cl)c2)c2ccccc21
inactive: dose: 100.0 mg/kg/injection, schedule: Q04DX002 (ip), vehicle: saline 96 % of control | dose: 200.0 mg/kg/injection, schedule: Q04DX002 (ip), vehicle: saline 99 % of control | dose: 400.0 mg/kg/injection, schedule: Q04DX002 (ip), vehicle: saline 99 % of control

CN(C)C(=S)Nc1ccc(S(=O)(=O)N2CCCCC2)cc1
inactive: [4] 105 % of control | [5] 105 % of control | [6] 105 % of control | dose: 400.0 mg/kg/injection, schedule: Q01DX009 (ip), vehicle: Klucel (hydroxypropylcellulose) (HPC) 101 % of control

CC(=O)Nc1ccc2c(C)cc(Cl)nc2c1
inactive: [1] 95 % of control | [2] 90 % of control | [3] 89 % of control

O=C(O)/C(Br)=C/c1ccccc1
inactive: [7] 87 % of control | [8] 91 % of control | [9] 87 % of control

O=C1C2=C(Nc3cc([N+](=O)[O-])ccc3N2)OC1c1ccc2c(c1)OCO2 (stereo not given)
inactive: dose: 1.87 mg/kg/injection, schedule: Q01DX005 (ip), vehicle: Klucel (hydroxypropylcellulose) (HPC) 89 % of control | dose: 3.75 mg/kg/injection, schedule: Q01DX005 (ip), vehicle: Klucel (hydroxypropylcellulose) (HPC) 90 % of control | dose: 7.5 mg/kg/injection, schedule: Q01DX005 (ip), vehicle: Klucel (hydroxypropylcellulose) (HPC) 90 % of control | dose: 15.0 mg/kg/injection, schedule: Q01DX005 (ip), vehicle: Klucel (hydroxypropylcellulose) (HPC) 88 % of control | dose: 30.0 mg/kg/injection, schedule: Q01DX005 (ip), vehicle: Klucel (hydroxypropylcellulose) (HPC) 87 % of control | dose: 120.0 mg/kg/injection, schedule: Q01DX005 (ip), vehicle: Klucel (hydroxypropylcellulose) (HPC) 89 % of control and 90 % of control | dose: 240.0 mg/kg/injection, schedule: Q01DX005 (ip), vehicle: Klucel (hydroxypropylcellulose) (HPC) 93 % of control

OC1COC(c2nn(-c3ccccc3)c3nc4ccccc4nc23)C1O (stereo not given)
inactive: dose: 50.0 mg/kg/injection, schedule: Q01DX005 (ip), vehicle: saline with Tween-80 87 % of control | dose: 100.0 mg/kg/injection, schedule: Q01DX005 (ip), vehicle: saline with Tween-80 87 % of control | dose: 200.0 mg/kg/injection, schedule: Q01DX005 (ip), vehicle: saline with Tween-80 87 % of control

COC(=O)C1C(O)CN2CCCC12C (stereo not given)
inactive: dose: 100.0 mg/kg/injection, schedule: Q04DX003 (ip), vehicle: saline with Tween-80 107 % of control | dose: 200.0 mg/kg/injection, schedule: Q04DX003 (ip), vehicle: saline with Tween-80 97 % of control | dose: 400.0 mg/kg/injection, schedule: Q04DX003 (ip), vehicle: saline with Tween-80 108 % of control

CCN(CC)/C(N)=N/O
inactive: dose: 2.5 mg/kg/injection, schedule: Q01DX009 (ip), vehicle: saline 95 % of control | dose: 5.0 mg/kg/injection, schedule: Q01DX009 (ip), vehicle: saline 104 % of control | dose: 10.0 mg/kg/injection, schedule: Q01DX009 (ip), vehicle: saline 102 % of control

CC(=O)NC(CC(C)C)C(=O)NC(Cc1ccccc1)C(=O)CCl (stereo not drawn) (Ac-Leu-Phe-CH2Cl; configuration not given here)
inactive: dose: 3.12 mg/kg/injection, schedule: Q01DX009 (ip), vehicle: Klucel (hydroxypropylcellulose) (HPC) 103 % of control | dose: 6.25 mg/kg/injection, schedule: Q01DX009 (ip), vehicle: Klucel (hydroxypropylcellulose) (HPC) 113 % of control | [10] 120 % of control | [11] 116 % of control

CN1C(=O)CCC1(O)C1SCCCS1 (stereo not given)
inactive: dose: 50.0 mg/kg/injection, schedule: Q01DX005 (ip), vehicle: saline 102 % of control | dose: 100.0 mg/kg/injection, schedule: Q01DX005 (ip), vehicle: saline 100 % of control | dose: 200.0 mg/kg/injection, schedule: Q01DX005 (ip), vehicle: saline 102 % of control

O=c1[nH]c(C(Br)(Br)Br)nc2ccccc12
inactive: [10] 99 % of control | [11] 112 % of control | [4] 113 % of control | [5] 117 % of control

O=C(O)CCCOC(C[N+](=O)[O-])C(Cl)(Cl)Cl (stereo not given)
inactive: [7] 95 % of control | [8] 100 % of control | [9] 96 % of control

Fc1ccc(NC(=S)Nc2ccccc2C(F)(F)F)cc1
inactive: [4] 92 % of control | [5] 92 % of control | [6] 100 % of control
